Laboratory results: patent US20120259008A1, “METHOD FOR TREATING ASTHENOPIA” (SUCAMPO AG, priority 2011, published 2012)

Tests used:
Type in all cases: in vivo, human
[1] = single administration of eye drop to a subject who had blurring of vision; settings: eye drop comprising 0.12%, after single administration, subject with blurring of vision
From the text: A subject who had blurring of vision received eye drop comprising 0.12% isopropyl unoprostone. After single administration of it, eye discharge and blurry vision were improved. On the other hand, after single administration of placebo, eye discharge and blurry vision were not improved.

[2] = single administration of eye drop to a subject who had eye pain; settings: eye drop comprising 0.12%, after single administration, subject with eye pain
From the text: A subject who had eye pain received eye drop comprising 0.12% isopropyl unoprostonen. After single administration of it, eye pain was improved. On the other hand, after single administration of placebo, eye pain was not improved.

[3] = eye drop twice a day for seven days to a subject with presbyopia and astigmatism who was difficult to focus on the objects; settings: eye drop comprising 0.12% twice a day
From the text: A subject who was difficult to focus on the objects even using the farsighted glasses received eye drop comprising 0.12% isopropyl unoprostone twice a day. They were presbyopia and astigmatism.

With CCCCCCCC(=O)CC[C@@H]1[C@@H](C/C=C\CCCC(=O)OC(C)C)[C@@H](O)C[C@H]1O [isopropyl unoprostone, (+)-isopropyl (Z)-7-[(1R,2R,3R,5S)-3,5-dihydroxy-2-(3-oxodecyl)cyclopentyl]hept-5-enoate] the blurry vision [1] was “improved”, the eye discharge [1] was “improved” and the eye pain [2] was “improved”. The “ability to focus on the objects (accommodative function)” value ([3]; after seven days administration, subject with presbyopia and astigmatism) was “able to focus on the objects easier and quicker than before the administration” and the “duration of the improvement in focusing” value ([3]; seven days administration) was “continued for three weeks”.
